Results reported in ChEMBL document CHEMBL5442219.

Tests used:
Details in all cases: Compound concentration 10 µM
[1] = biological target: 5-hydroxytryptamine receptor 1E (Homo sapiens) (UniProt P28566)
Description: PDSP Primary Binding target: HTR1E - Compounds are tested at 10 uM concentration, plate are incubated at room temperature in the dark for 90 minutes. Reaction are stopped by vacuum filtration onto 0.3% polyethyleneimine soaked filter mats using Filtermate harvester. Scintilation cocktail is then melted onto microwave-dried filters on a hot plate and the radio activity is counted in Microbia counter.

[2] = biological target: 5-hydroxytryptamine receptor 7 (Homo sapiens) (UniProt P34969)
Description: PDSP Primary Binding target: HTR7 - Compounds are tested at 10 uM concentration, plate are incubated at room temperature in the dark for 90 minutes. Reaction are stopped by vacuum filtration onto 0.3% polyethyleneimine soaked filter mats using Filtermate harvester. Scintilation cocktail is then melted onto microwave-dried filters on a hot plate and the radio activity is counted in Microbia counter.

[3] = biological target: 5-hydroxytryptamine receptor 5A (Homo sapiens) (UniProt P47898)
Description: PDSP Primary Binding target: HTR5A - Compounds are tested at 10 uM concentration, plate are incubated at room temperature in the dark for 90 minutes. Reaction are stopped by vacuum filtration onto 0.3% polyethyleneimine soaked filter mats using Filtermate harvester. Scintilation cocktail is then melted onto microwave-dried filters on a hot plate and the radio activity is counted in Microbia counter.

[4] = biological target: Sigma intracellular receptor 2 (Homo sapiens) (UniProt Q5BJF2)
Description: PDSP Primary Binding target: TMEM97 - Compounds are tested at 10 uM concentration, plate are incubated at room temperature in the dark for 90 minutes. Reaction are stopped by vacuum filtration onto 0.3% polyethyleneimine soaked filter mats using Filtermate harvester. Scintilation cocktail is then melted onto microwave-dried filters on a hot plate and the radio activity is counted in Microbia counter.

[5] = biological target: T1, Alpha-1A adrenergic receptor (Homo sapiens) (UniProt P35348)
T1 sequence (whole entry): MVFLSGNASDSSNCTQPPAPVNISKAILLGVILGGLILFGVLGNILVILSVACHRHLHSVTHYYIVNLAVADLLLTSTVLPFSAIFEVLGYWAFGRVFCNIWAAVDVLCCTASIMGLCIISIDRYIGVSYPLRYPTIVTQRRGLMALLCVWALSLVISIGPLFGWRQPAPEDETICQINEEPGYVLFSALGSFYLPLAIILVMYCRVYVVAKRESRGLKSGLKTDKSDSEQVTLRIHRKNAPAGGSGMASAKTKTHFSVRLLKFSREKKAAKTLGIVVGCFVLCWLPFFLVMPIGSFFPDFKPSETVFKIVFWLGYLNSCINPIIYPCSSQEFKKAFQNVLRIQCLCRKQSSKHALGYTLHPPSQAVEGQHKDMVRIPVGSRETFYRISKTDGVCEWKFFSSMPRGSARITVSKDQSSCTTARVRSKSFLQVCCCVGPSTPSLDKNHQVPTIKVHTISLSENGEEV
Description: PDSP Primary Binding target: ADRA1A - Compounds are tested at 10 uM concentration, plate are incubated at room temperature in the dark for 90 minutes. Reaction are stopped by vacuum filtration onto 0.3% polyethyleneimine soaked filter mats using Filtermate harvester. Scintilation cocktail is then melted onto microwave-dried filters on a hot plate and the radio activity is counted in Microbia counter.

[6] = biological target: D(3) dopamine receptor (Homo sapiens) (UniProt P35462)
D(3) dopamine receptor (Homo sapiens), sequence (P35462 whole entry): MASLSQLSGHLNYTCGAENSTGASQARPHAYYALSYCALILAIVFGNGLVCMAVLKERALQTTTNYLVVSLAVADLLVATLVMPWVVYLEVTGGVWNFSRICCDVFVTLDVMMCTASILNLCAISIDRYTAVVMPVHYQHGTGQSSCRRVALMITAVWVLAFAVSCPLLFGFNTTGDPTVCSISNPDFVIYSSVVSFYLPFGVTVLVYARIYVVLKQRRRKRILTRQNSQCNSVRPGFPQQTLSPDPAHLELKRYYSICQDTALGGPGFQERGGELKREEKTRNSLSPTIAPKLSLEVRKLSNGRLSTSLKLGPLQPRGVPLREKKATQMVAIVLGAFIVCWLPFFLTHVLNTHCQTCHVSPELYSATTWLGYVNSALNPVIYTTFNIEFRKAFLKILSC
Description: PDSP Primary Binding target: DRD3 - Compounds are tested at 10 uM concentration, plate are incubated at room temperature in the dark for 90 minutes. Reaction are stopped by vacuum filtration onto 0.3% polyethyleneimine soaked filter mats using Filtermate harvester. Scintilation cocktail is then melted onto microwave-dried filters on a hot plate and the radio activity is counted in Microbia counter.

[7] = biological target: 5-hydroxytryptamine receptor 1B (Homo sapiens) (UniProt P28222)
5-hydroxytryptamine receptor 1B (Homo sapiens), sequence (P28222 whole entry): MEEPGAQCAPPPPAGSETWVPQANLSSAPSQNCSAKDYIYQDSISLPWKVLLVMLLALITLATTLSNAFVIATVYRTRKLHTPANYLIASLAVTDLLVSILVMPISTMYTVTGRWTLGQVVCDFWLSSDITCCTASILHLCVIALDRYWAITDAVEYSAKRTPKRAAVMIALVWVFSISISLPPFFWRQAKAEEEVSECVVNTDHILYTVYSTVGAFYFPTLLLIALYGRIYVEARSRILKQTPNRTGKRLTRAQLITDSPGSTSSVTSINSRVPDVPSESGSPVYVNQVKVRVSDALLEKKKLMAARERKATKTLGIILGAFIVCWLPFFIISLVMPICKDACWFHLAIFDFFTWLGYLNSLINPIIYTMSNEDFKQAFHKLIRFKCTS
Description: PDSP Primary Binding target: HTR1B - Compounds are tested at 10 uM concentration, plate are incubated at room temperature in the dark for 90 minutes. Reaction are stopped by vacuum filtration onto 0.3% polyethyleneimine soaked filter mats using Filtermate harvester. Scintilation cocktail is then melted onto microwave-dried filters on a hot plate and the radio activity is counted in Microbia counter.

[8] = biological target: T2, 5-hydroxytryptamine receptor 2C (Homo sapiens) (UniProt P28335)
T2 sequence (whole entry): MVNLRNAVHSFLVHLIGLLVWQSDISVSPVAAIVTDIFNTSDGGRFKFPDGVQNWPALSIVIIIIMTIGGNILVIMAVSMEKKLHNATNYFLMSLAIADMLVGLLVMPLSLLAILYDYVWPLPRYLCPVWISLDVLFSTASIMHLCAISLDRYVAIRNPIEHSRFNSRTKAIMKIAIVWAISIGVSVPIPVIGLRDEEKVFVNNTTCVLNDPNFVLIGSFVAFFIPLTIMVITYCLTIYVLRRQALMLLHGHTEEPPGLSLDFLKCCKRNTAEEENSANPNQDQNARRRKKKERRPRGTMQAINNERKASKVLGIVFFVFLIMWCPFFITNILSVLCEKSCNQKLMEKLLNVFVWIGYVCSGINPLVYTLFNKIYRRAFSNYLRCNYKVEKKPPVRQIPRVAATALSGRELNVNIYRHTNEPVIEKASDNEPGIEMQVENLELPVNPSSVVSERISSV
Description: PDSP Primary Binding target: HTR2C - Compounds are tested at 10 uM concentration, plate are incubated at room temperature in the dark for 90 minutes. Reaction are stopped by vacuum filtration onto 0.3% polyethyleneimine soaked filter mats using Filtermate harvester. Scintilation cocktail is then melted onto microwave-dried filters on a hot plate and the radio activity is counted in Microbia counter.

[9] = biological target: D(1A) dopamine receptor (Homo sapiens) (UniProt P21728)
D(1A) dopamine receptor (Homo sapiens), sequence (P21728 whole entry): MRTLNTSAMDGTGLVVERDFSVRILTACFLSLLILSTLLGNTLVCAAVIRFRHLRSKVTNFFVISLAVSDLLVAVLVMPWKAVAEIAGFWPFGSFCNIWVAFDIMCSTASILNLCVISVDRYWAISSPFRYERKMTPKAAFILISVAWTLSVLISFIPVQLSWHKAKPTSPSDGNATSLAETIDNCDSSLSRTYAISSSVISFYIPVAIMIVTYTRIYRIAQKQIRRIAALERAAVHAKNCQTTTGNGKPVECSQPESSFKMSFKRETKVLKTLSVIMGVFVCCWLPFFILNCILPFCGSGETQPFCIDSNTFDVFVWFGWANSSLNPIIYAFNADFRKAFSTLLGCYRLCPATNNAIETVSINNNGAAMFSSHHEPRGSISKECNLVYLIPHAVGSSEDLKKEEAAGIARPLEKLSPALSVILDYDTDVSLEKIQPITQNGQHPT
Description: PDSP Primary Binding target: DRD1 - Compounds are tested at 10 uM concentration, plate are incubated at room temperature in the dark for 90 minutes. Reaction are stopped by vacuum filtration onto 0.3% polyethyleneimine soaked filter mats using Filtermate harvester. Scintilation cocktail is then melted onto microwave-dried filters on a hot plate and the radio activity is counted in Microbia counter.

[10] = biological target: D(2) dopamine receptor (Homo sapiens) (UniProt P14416)
Description: PDSP Primary Binding target: DRD2 - Compounds are tested at 10 uM concentration, plate are incubated at room temperature in the dark for 90 minutes. Reaction are stopped by vacuum filtration onto 0.3% polyethyleneimine soaked filter mats using Filtermate harvester. Scintilation cocktail is then melted onto microwave-dried filters on a hot plate and the radio activity is counted in Microbia counter.

[11] = biological target: T3, 5-hydroxytryptamine receptor 1A (Homo sapiens) (UniProt P08908)
T3 sequence (whole entry): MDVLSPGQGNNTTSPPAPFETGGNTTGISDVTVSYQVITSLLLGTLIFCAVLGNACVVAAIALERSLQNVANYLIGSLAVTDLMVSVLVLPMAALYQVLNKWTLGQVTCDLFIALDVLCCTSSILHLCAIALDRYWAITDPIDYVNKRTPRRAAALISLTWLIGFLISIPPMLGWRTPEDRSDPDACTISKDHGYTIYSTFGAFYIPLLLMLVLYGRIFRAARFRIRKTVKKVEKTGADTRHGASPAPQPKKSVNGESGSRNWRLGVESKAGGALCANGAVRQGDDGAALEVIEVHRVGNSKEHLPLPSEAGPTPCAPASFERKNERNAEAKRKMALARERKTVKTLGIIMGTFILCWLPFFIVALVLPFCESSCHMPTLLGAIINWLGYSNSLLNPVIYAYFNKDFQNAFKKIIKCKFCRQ
Description: PDSP Primary Binding target: HTR1A - Compounds are tested at 10 uM concentration, plate are incubated at room temperature in the dark for 90 minutes. Reaction are stopped by vacuum filtration onto 0.3% polyethyleneimine soaked filter mats using Filtermate harvester. Scintilation cocktail is then melted onto microwave-dried filters on a hot plate and the radio activity is counted in Microbia counter.

[12] = biological target: 5-hydroxytryptamine receptor 1D (Homo sapiens) (UniProt P28221)
Description: PDSP Primary Binding target: HTR1D - Compounds are tested at 10 uM concentration, plate are incubated at room temperature in the dark for 90 minutes. Reaction are stopped by vacuum filtration onto 0.3% polyethyleneimine soaked filter mats using Filtermate harvester. Scintilation cocktail is then melted onto microwave-dried filters on a hot plate and the radio activity is counted in Microbia counter.

[13] = biological target: 5-hydroxytryptamine receptor 2B (Homo sapiens) (UniProt P41595)
5-hydroxytryptamine receptor 2B (Homo sapiens), sequence (P41595 whole entry): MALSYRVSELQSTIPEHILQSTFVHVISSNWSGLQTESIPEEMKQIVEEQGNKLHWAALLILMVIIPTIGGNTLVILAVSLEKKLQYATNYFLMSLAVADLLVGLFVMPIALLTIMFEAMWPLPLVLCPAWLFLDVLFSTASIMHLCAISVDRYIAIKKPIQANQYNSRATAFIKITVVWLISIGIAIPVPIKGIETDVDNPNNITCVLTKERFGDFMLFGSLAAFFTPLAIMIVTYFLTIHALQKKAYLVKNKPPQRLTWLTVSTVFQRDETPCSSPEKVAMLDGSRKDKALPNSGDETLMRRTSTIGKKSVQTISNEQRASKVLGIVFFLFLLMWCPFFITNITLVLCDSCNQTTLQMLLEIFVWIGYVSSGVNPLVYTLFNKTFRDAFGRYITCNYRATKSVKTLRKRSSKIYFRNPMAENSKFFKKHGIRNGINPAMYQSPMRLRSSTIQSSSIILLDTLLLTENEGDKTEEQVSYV
Description: PDSP Primary Binding target: HTR2B - Compounds are tested at 10 uM concentration, plate are incubated at room temperature in the dark for 90 minutes. Reaction are stopped by vacuum filtration onto 0.3% polyethyleneimine soaked filter mats using Filtermate harvester. Scintilation cocktail is then melted onto microwave-dried filters on a hot plate and the radio activity is counted in Microbia counter.

[14] = biological target: Sigma non-opioid intracellular receptor 1 (Homo sapiens) (UniProt Q99720)
Sigma non-opioid intracellular receptor 1 (Homo sapiens), sequence (Q99720 whole entry): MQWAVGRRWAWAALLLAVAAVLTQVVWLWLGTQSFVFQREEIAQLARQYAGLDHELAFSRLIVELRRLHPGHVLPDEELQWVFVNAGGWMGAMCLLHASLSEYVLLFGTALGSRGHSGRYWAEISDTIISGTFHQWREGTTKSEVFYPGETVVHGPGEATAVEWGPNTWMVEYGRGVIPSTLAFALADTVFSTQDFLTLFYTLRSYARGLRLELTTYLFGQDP
Description: PDSP Primary Binding target: SIGMAR1 - Compounds are tested at 10 uM concentration, plate are incubated at room temperature in the dark for 90 minutes. Reaction are stopped by vacuum filtration onto 0.3% polyethyleneimine soaked filter mats using Filtermate harvester. Scintilation cocktail is then melted onto microwave-dried filters on a hot plate and the radio activity is counted in Microbia counter.

[15] = biological target: Histamine H3 receptor (Homo sapiens) (UniProt Q9Y5N1)
Histamine H3 receptor (Homo sapiens), sequence (Q9Y5N1 whole entry): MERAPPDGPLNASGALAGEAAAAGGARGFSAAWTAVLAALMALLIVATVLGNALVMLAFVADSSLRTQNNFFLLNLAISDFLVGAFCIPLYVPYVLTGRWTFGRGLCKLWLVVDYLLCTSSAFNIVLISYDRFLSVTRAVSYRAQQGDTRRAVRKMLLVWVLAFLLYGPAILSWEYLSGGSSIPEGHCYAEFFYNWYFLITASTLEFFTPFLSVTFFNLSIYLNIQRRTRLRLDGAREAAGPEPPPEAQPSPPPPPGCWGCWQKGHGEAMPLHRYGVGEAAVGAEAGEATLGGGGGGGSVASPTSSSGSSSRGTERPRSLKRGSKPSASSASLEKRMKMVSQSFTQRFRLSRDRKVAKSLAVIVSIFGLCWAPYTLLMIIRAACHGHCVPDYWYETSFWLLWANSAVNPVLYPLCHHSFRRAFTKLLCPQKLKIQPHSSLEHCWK
Description: PDSP Primary Binding target: HRH3 - Compounds are tested at 10 uM concentration, plate are incubated at room temperature in the dark for 90 minutes. Reaction are stopped by vacuum filtration onto 0.3% polyethyleneimine soaked filter mats using Filtermate harvester. Scintilation cocktail is then melted onto microwave-dried filters on a hot plate and the radio activity is counted in Microbia counter.

[16] = biological target: Sodium-dependent dopamine transporter (Homo sapiens) (UniProt Q01959)
Sodium-dependent dopamine transporter (Homo sapiens), sequence (Q01959 whole entry): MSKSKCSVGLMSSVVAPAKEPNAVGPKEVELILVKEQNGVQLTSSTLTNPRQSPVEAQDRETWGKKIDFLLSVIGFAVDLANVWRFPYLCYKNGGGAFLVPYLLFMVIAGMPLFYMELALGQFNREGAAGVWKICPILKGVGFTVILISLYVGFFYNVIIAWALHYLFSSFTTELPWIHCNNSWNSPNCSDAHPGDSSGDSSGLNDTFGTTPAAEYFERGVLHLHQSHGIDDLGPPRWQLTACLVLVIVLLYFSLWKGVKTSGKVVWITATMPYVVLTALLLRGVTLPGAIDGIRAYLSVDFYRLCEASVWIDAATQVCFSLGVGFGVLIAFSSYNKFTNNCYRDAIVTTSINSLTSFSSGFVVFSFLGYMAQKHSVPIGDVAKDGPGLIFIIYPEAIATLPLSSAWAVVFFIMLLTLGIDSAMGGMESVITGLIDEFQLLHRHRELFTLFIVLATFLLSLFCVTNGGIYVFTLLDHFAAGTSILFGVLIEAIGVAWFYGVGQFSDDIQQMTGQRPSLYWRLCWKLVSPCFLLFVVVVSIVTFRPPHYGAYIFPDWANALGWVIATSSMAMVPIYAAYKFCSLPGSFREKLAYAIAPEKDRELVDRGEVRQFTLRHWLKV
Description: PDSP Primary Binding target: SLC6A3 - Compounds are tested at 10 uM concentration, plate are incubated at room temperature in the dark for 90 minutes. Reaction are stopped by vacuum filtration onto 0.3% polyethyleneimine soaked filter mats using Filtermate harvester. Scintilation cocktail is then melted onto microwave-dried filters on a hot plate and the radio activity is counted in Microbia counter.

[17] = biological target: Mu-type opioid receptor (Homo sapiens) (UniProt P35372)
Mu-type opioid receptor (Homo sapiens), sequence (P35372 whole entry): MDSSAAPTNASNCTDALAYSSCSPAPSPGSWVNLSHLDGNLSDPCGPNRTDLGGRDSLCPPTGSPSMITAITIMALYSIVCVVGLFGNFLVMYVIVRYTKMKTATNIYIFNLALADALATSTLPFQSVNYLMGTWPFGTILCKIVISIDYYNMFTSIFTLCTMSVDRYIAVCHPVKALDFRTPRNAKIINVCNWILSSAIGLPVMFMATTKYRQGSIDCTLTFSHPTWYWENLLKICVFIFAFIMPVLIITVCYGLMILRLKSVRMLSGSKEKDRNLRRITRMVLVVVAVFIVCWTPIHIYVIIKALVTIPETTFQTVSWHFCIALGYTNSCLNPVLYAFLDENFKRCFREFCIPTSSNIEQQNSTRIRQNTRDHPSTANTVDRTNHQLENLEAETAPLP
Description: PDSP Primary Binding target: OPRM1 - Compounds are tested at 10 uM concentration, plate are incubated at room temperature in the dark for 90 minutes. Reaction are stopped by vacuum filtration onto 0.3% polyethyleneimine soaked filter mats using Filtermate harvester. Scintilation cocktail is then melted onto microwave-dried filters on a hot plate and the radio activity is counted in Microbia counter.

[18] = biological target: T4, Muscarinic acetylcholine receptor M1 (Homo sapiens) (UniProt P11229)
T4 sequence (whole entry): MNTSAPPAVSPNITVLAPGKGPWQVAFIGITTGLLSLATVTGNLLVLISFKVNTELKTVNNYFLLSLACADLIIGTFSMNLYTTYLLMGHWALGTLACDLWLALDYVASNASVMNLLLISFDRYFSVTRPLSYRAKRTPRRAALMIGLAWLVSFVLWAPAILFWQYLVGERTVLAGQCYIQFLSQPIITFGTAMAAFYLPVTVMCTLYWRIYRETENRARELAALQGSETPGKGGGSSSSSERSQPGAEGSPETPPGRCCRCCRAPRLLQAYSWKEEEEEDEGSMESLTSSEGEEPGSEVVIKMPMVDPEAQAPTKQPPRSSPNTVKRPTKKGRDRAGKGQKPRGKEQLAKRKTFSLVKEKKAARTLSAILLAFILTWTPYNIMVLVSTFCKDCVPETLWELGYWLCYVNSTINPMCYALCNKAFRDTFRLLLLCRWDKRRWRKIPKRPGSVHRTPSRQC
Description: PDSP Primary Binding target: CHRM1 - Compounds are tested at 10 uM concentration, plate are incubated at room temperature in the dark for 90 minutes. Reaction are stopped by vacuum filtration onto 0.3% polyethyleneimine soaked filter mats using Filtermate harvester. Scintilation cocktail is then melted onto microwave-dried filters on a hot plate and the radio activity is counted in Microbia counter.

[19] = biological target: 5-hydroxytryptamine receptor 2A (Homo sapiens) (UniProt P28223)
5-hydroxytryptamine receptor 2A (Homo sapiens), sequence (P28223 whole entry): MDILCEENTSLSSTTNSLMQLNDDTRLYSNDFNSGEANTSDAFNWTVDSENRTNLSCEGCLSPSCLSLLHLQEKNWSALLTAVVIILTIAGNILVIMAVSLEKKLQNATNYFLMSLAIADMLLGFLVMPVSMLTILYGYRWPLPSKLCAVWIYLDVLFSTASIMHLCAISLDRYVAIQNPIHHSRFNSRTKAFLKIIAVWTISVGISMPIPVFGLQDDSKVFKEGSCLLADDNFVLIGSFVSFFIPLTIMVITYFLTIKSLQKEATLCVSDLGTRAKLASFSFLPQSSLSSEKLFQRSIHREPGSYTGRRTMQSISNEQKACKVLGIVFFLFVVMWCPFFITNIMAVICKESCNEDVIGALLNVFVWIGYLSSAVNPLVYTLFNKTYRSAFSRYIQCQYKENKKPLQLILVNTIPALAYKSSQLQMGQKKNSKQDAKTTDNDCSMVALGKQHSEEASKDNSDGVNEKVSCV
Description: PDSP Primary Binding target: HTR2A - Compounds are tested at 10 uM concentration, plate are incubated at room temperature in the dark for 90 minutes. Reaction are stopped by vacuum filtration onto 0.3% polyethyleneimine soaked filter mats using Filtermate harvester. Scintilation cocktail is then melted onto microwave-dried filters on a hot plate and the radio activity is counted in Microbia counter.

Sigma intracellular receptor 2 (Homo sapiens), sequence (Q5BJF2 whole entry): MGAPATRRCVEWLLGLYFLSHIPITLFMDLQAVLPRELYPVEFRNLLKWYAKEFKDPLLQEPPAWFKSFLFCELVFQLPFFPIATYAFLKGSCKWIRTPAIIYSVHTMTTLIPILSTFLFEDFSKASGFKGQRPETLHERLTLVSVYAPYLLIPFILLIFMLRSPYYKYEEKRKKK
5-hydroxytryptamine receptor 7 (Homo sapiens), sequence (P34969 whole entry): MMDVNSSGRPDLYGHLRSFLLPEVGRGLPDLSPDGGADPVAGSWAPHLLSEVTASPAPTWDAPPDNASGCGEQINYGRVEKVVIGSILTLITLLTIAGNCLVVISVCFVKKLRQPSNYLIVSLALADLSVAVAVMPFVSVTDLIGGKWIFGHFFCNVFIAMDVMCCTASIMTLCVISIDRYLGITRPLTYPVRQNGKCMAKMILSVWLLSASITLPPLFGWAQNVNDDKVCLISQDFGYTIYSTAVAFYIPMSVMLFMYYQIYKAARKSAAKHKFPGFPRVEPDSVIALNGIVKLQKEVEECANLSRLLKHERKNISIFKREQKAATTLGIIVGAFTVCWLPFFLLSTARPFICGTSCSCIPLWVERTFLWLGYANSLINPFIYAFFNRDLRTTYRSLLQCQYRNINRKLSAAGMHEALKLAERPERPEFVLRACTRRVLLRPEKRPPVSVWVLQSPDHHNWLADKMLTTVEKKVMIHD
5-hydroxytryptamine receptor 5A (Homo sapiens), sequence (P47898 whole entry): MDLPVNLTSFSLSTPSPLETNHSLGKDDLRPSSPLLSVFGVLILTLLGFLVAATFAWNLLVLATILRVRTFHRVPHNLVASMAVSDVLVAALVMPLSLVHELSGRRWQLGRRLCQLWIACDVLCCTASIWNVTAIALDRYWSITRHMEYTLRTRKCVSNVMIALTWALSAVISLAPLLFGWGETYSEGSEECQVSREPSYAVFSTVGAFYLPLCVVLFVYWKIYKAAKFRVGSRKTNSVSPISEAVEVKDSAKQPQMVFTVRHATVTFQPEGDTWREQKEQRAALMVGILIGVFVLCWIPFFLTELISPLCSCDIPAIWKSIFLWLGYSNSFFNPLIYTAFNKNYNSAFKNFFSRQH

Row | Compound | inhibition [1] [%] | inhibition [2] [%] | inhibition [3] [%] | inhibition [4] [%] | inhibition [5] [%] | inhibition [6] [%] | inhibition [7] [%] | inhibition [8] [%] | inhibition [9] [%] | inhibition [10] [%] | inhibition [11] [%] | inhibition [12] [%] | inhibition [13] [%] | inhibition [14] [%] | inhibition [15] [%] | inhibition [16] [%] | inhibition [17] [%] | inhibition [18] [%] | inhibition [19] [%]
1 | CN1C[C@H](C(=O)N[C@]2(C)O[C@@]3(O)[C@@H]4CCCN4C(=O)[C@H](Cc4ccccc4)N3C2=O)C[C@@H]2c3cccc4[nH]cc(c34)C[C@H]21 | 76.1 | 91.3 | 97.6 | 93.6 | 99.4 | 97.8 | 104 | 103 | 36.3 | 100 | 96.3 | 98.8 | 82.8 | 72.9 | 38.2 | 5.72 | 58.1 |  | 
2 | Cc1nc(C#Cc2ccnc(Cl)c2)c(C)n1-c1ccc(OC(F)(F)F)cc1 | 20.5 | 7.42 | 30 | 75.5 | 14.3 | 13.1 | 11.3 | 1.86 |  | 28.3 | 10.3 | 48.9 | 19.6 | 56.3 | 0.66 | 8 | 13.4 | 26.6 | 16.1
3 | FC(F)(F)c1cccc(-c2noc(-c3cc(-c4ccccc4)c(C(F)(F)F)s3)n2)c1 | 10.4 | 7.06 | 18.8 |  |  |  | 1.92 | 1.03 |  | 24.7 | 2.88 | -9.1 | 10.1 | -0.34 |  | 17.8 | -7.64 | 21.5 | -1.97
4 | CC1CCN(CC[C@H]2CCCN2S(=O)(=O)c2cccc(O)c2)CC1 | 7.28 | 85.8 | 91.7 | 98.2 |  | 61.6 | 78.2 |  | -5.94 | 33.5 | 0.65 | 88.7 | 15.4 | -8.64 | -4.13 | 46.1 | 62.9 | -8.14 | 28.8
5 | CN1CCC(=C2c3ccccc3CC(=O)c3sccc32)CC1 | 27.9 | 90.4 | 43.5 | 91.3 | 9.71 | 80.2 | 63.1 | 93.2 | 82.8 | 100 | 6.57 | 123 | 98.4 | -1.6 | -7.74 | 20.7 | 15.9 |  | 
6 | Cc1cc(C)c(N)c(C#Cc2cccc(F)c2)n1 | 20.1 | 7.78 | -5.73 | 15.9 | 10.2 | 9.35 | 16.6 | 2.41 | 17.1 | 0.33 | -6.48 | 18.3 | 29.9 | 3.28 | -8.58 | 9.26 | 2.84 |  | 5.87
7 | NC[C@H](O)c1ccc(O)c(O)c1 | 1.24 | -5 |  | 24.6 | 7.82 | 57.9 | 10.7 | -4.42 | 2.57 | 6.01 | -9.29 | 24.3 | 24.8 | 39.1 |  | 21.8 |  | -6.89 | 10.9
